{"source": "patent US11279733B2", "about": "“Peptide antibiotics” (priority 2017, dated 2022)", "key": {"[1]": {"system": "A. baumannii ATCC 19606", "procedure,_shortened": "(§1)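 Mid-log cultures grown in Mueller Hinton broth at 37° C were tested by 2-fold broth microdilution at 5×10^5 CFU/mL final. Compounds were dissolved in water and tested over a final range of 32 to 0.015 μg/mL.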"}, "[2]": {"system": "A. baumannii GN_093 PmxR", "procedure,_shortened": "as §1"}, "[3]": {"system": "E. coli ATCC 25922", "procedure,_shortened": "as §1"}, "[4]": {"system": "K. pneumoniae ATCC 13883", "procedure,_shortened": "as §1"}, "[5]": {"system": "K. pneumoniae ATCC 700603, MDR", "procedure,_shortened": "as §1"}, "[6]": {"system": "K. pneumoniae ATCC BAA-2146, NDM-1 pos", "procedure,_shortened": "as §1"}, "[7]": {"system": "K. pneumoniae GN_102 PmxR", "procedure,_shortened": "as §1"}, "[8]": {"system": "K. pneumoniae GN_106, PmxR", "procedure,_shortened": "as §1"}, "[9]": {"system": "P. aeruginosa ATCC 27853", "procedure,_shortened": "as §1"}, "[10]": {"system": "P. aeruginosa GN_043, PmxR", "procedure,_shortened": "as §1"}, "[11]": {"system": "P. aeruginosa GN_105, PmxR", "procedure,_shortened": "as §1"}, "[12]": {"system": "S. aureus ATCC 25923, MSSA", "procedure,_shortened": "as §1"}, "[13]": {"system": "Human kidney 2 (HK2) cells", "assay": "Cytotoxicity, HK2 LDH assay", "procedure,_shortened": "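HK2 cells were seeded at 2000 per well in DMEM/F12 with 10% FBS and left to attach for 24 h at 37 °C, 5% CO2. They were then exposed for 24 h to 3-fold peptide dilutions starting from 600 μM solutions in quadruplicate. LDH release was read at 450 nm, and CC50 was fitted from dose-response curves.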"}}, "note": "Like-named read-outs stand apart in the source and are kept apart here.", "data": [{"substance": "polymyxin B sulfate [PolymyxinB, reference compound]", "values": [{"measurement": "MIC A. baumannii ATCC 19606", "setting": "[1]", "result": 0.25, "unit": "µg/mL"}, {"measurement": "MIC A. baumannii ATCC 19606", "setting": "[1]; A. baumannii ATCC 19606", "result": 0.25, "unit": "µg/mL"}, {"measurement": "MIC, A. baumannii ATCC 19606", "setting": "[1]; Table 5", "result": 0.25, "unit": "µg/mL"}, {"measurement": "MIC, A. baumannii ATCC 19606", "setting": "[1]; Table 6", "result": 0.25, "unit": "µg/mL"}, {"measurement": "MIC A. baumannii GN_093 PmxR", "setting": "[2]", "result": 64, "unit": "µg/mL"}, {"measurement": "MIC A. baumannii GN_093 PmxR", "setting": "[2]; A. baumannii GN_093 PmxR", "result": 64, "unit": "µg/mL"}, {"measurement": "MIC, A. baumannii Cl Ptyela 10073 4512:2, PmxR", "setting": "[2]; Table 5, polymyxin-resistant", "result": 64, "unit": "µg/mL"}, {"measurement": "MIC A. baumannii GN_093 PmxR", "setting": "[2]; Table 6, polymyxin-resistant", "result": 64, "unit": "µg/mL"}, {"measurement": "MIC A. baumannii GN_093 PmxR", "setting": "[2]; polymyxin-resistant", "result": 64, "unit": "µg/mL"}, {"measurement": "MIC A. baumannii Cl Ptyela 10073 4512:2, PmxR", "setting": "[2]; strain name as in Table 11", "result": 64, "unit": "µg/mL"}, {"measurement": "MIC E. coli ATCC 25922", "setting": "[3]", "result": 0.25, "unit": "µg/mL"}, {"measurement": "MIC E. coli ATCC 25922", "setting": "[3]; E. coli ATCC 25922", "result": 0.25, "unit": "µg/mL"}, {"measurement": "MIC, E. coli ATCC 25922", "setting": "[3]; Table 5", "result": 0.25, "unit": "µg/mL"}, {"measurement": "MIC, E. coli ATCC 25922", "setting": "[3]; Table 6", "result": 0.25, "unit": "µg/mL"}, {"measurement": "MIC K. pneumoniae ATCC 13883", "setting": "[4]", "result": 1, "unit": "µg/mL"}, {"measurement": "MIC K. pneumoniae ATCC 13883", "setting": "[4]; K. pneumoniae ATCC 13883", "result": 1, "unit": "µg/mL"}, {"measurement": "MIC, K. pneumoniae ATCC 13883", "setting": "[4]; Table 5", "result": 1, "unit": "µg/mL"}, {"measurement": "MIC, K. pneumoniae ATCC 13883", "setting": "[4]; Table 6", "result": 1, "unit": "µg/mL"}, {"measurement": "MIC K. pneumoniae ATCC 700603, MDR", "setting": "[5]", "result": 0.5, "unit": "µg/mL"}, {"measurement": "MIC K. pneumoniae ATCC 700603, MDR", "setting": "[5]; K. pneumoniae ATCC 700603, MDR", "result": 0.5, "unit": "µg/mL"}, {"measurement": "MIC, K. pneumoniae ATCC 700603, MDR", "setting": "[5]; Table 5", "result": 0.5, "unit": "µg/mL"}, {"measurement": "MIC, K. pneumoniae ATCC 700603, MDR", "setting": "[5]; Table 6", "result": 0.5, "unit": "µg/mL"}, {"measurement": "MIC K. pneumoniae ATCC BAA-2146, NDM-1 pos", "setting": "[6]", "result": 0.25, "unit": "µg/mL"}, {"measurement": "MIC K. pneumoniae ATCC BAA-2146, NDM-1 pos", "setting": "[6]; K. pneumoniae ATCC BAA-2146, NDM-1 pos", "result": 0.25, "unit": "µg/mL"}, {"measurement": "MIC, K. pneumoniae ATCC BAA-2146, NDM-1 pos", "setting": "[6]; Table 5", "result": 0.25, "unit": "µg/mL"}, {"measurement": "MIC, K. pneumoniae ATCC BAA-2146, NDM-1 pos", "setting": "[6]; Table 6", "result": 0.25, "unit": "µg/mL"}, {"measurement": "MIC K. pneumoniae GN_102 PmxR", "setting": "[7]", "result": 64, "unit": "µg/mL"}, {"measurement": "MIC K. pneumoniae GN_102 PmxR", "setting": "[7]; K. pneumoniae GN_102 PmxR", "result": 64, "unit": "µg/mL"}, {"measurement": "MIC, K. pneumoniae Cl Koprana 10065 0661:1, PmxR", "setting": "[7]; Table 5, polymyxin-resistant", "result": 64, "unit": "µg/mL"}, {"measurement": "MIC K. pneumoniae GN_102 PmxR", "setting": "[7]; Table 6, polymyxin-resistant", "result": 64, "unit": "µg/mL"}, {"measurement": "MIC K. pneumoniae GN_102 PmxR", "setting": "[7]; polymyxin-resistant", "result": 64, "unit": "µg/mL"}, {"measurement": "MIC K. pneumoniae Cl Koprana 10065 0661:1 PmxR", "setting": "[7]; strain name as in Table 11", "result": 64, "unit": "µg/mL"}, {"measurement": "MIC K. pneumoniae GN_106, PmxR", "setting": "[8]", "result": 64, "unit": "µg/mL"}, {"measurement": "MIC K. pneumoniae GN_106, PmxR", "setting": "[8]; K. pneumoniae GN_106, PmxR", "result": 64, "unit": "µg/mL"}, {"measurement": "MIC, K. pneumoniae Cl 138-16347-20362, PmxR", "setting": "[8]; Table 5, polymyxin-resistant", "result": 64, "unit": "µg/mL"}, {"measurement": "MIC K. pneumoniae GN_106, PmxR", "setting": "[8]; Table 6, polymyxin-resistant", "result": 64, "unit": "µg/mL"}, {"measurement": "MIC K. pneumoniae GN_106, PmxR", "setting": "[8]; polymyxin-resistant", "result": 64, "unit": "µg/mL"}, {"measurement": "MIC K. pneumoniae Cl 183-16357-20352, PmxR", "setting": "[8]; strain name as in Table 11", "result": 64, "unit": "µg/mL"}, {"measurement": "MIC P. aeruginosa ATCC 27853", "setting": "[9]", "result": 0.5, "unit": "µg/mL"}, {"measurement": "MIC P. aeruginosa ATCC 27853", "setting": "[9]; P. aeruginosa ATCC 27853", "result": 0.5, "unit": "µg/mL"}, {"measurement": "MIC, P. aeruginosa ATCC 27853", "setting": "[9]; Table 5", "result": 0.5, "unit": "µg/mL"}, {"measurement": "MIC, P. aeruginosa ATCC 27853", "setting": "[9]; Table 6", "result": 0.5, "unit": "µg/mL"}, {"measurement": "MIC P. aeruginosa GN_043, PmxR", "setting": "[10]", "result": 64, "unit": "µg/mL"}, {"measurement": "MIC P. aeruginosa GN_043, PmxR", "setting": "[10]; P. aeruginosa GN_043, PmxR", "result": 64, "unit": "µg/mL"}, {"measurement": "MIC, P. aeruginosa FADDI-PA070, PmxR", "setting": "[10]; Table 5, polymyxin-resistant", "result": 64, "unit": "µg/mL"}, {"measurement": "MIC P. aeruginosa GN_043, PmxR", "setting": "[10]; Table 6, polymyxin-resistant", "result": 64, "unit": "µg/mL"}, {"measurement": "MIC P. aeruginosa GN_043, PmxR", "setting": "[10]; polymyxin-resistant", "result": 64, "unit": "µg/mL"}, {"measurement": "MIC, P. aeruginosa FADDI-PA070, PmxR", "setting": "[10]; strain name as in Table 11", "result": 64, "unit": "µg/mL"}, {"measurement": "MIC P. aeruginosa GN_105, PmxR", "setting": "[11]", "result": ">128", "unit": "µg/mL"}, {"measurement": "MIC P. aeruginosa GN_105, PmxR", "setting": "[11]; P. aeruginosa GN_105, PmxR", "result": ">128", "unit": "µg/mL"}, {"measurement": "MIC, P. aeruginosa PA9704, PmxR", "setting": "[11]; Table 5, polymyxin-resistant", "result": ">128", "unit": "µg/mL"}, {"measurement": "MIC P. aeruginosa GN_105, PmxR", "setting": "[11]; Table 6, polymyxin-resistant", "result": ">128", "unit": "µg/mL"}, {"measurement": "MIC P. aeruginosa GN_105, PmxR", "setting": "[11]; polymyxin-resistant", "result": ">128", "unit": "µg/mL"}, {"measurement": "MIC P. aeruginosa PA9704, PmxR", "setting": "[11]; strain name as in Table 11", "result": ">128", "unit": "µg/mL"}, {"measurement": "MIC S. aureus ATCC 25923, MSSA", "setting": "[12]", "result": ">64", "unit": "µg/mL"}, {"measurement": "MIC S. aureus ATCC 25923, MSSA", "setting": "[12]; S. aureus ATCC 25923, MSSA", "result": ">64", "unit": "µg/mL"}, {"measurement": "MIC, S. Aureus ATCC 25923, MSSA", "setting": "[12]; Table 5", "result": ">64", "unit": "µg/mL"}, {"measurement": "MIC, S. aureus ATCC 25923, MSSA", "setting": "[12]; Table 6", "result": ">64", "unit": "µg/mL"}, {"measurement": "CC50", "setting": "[13]; read-out: HK2 (LDH) CC50, HK2 cells, LDH", "result": 125, "unit": "µM"}, {"measurement": "CC50", "setting": "[13]; read-out: HK2 (LDH)-CC50, HK2, LDH, 24 h", "result": 125, "unit": "µM"}, {"measurement": "CC50", "setting": "[13]; read-out: HK2 (LDH)-CC50, HK2 cells, LDH", "result": 125, "unit": "µM"}, {"measurement": "CC50", "setting": "[13]; read-out: HK2 (LDH)-CC50, Table 5, HK2 cells, LDH", "result": 125, "unit": "µM"}, {"measurement": "CC50", "setting": "[13]; read-out: HK2 (LDH)-CC50, Table 6, HK2 cells, LDH", "result": 125, "unit": "µM"}]}]}
